# Laboratory results taken from patent publication US9211296B2, “Therapeutic compounds for blocking DNA synthesis of POX viruses” (priority 2007, dated 2015).
# Where two headings read alike, the source gives them in different places.
# How the values were obtained:
# vaccinia virus WR [1] = assay: microbe, parasite or virus in culture; assay type: cell-based
# vaccinia virus WR [2] = assay type: cell-based
# vaccinia virus WR [3] = assay: microbe, parasite or virus in culture; assay type: cell-based; remark: listed apart in the source
# BS-C-1 cells = assay: WST-1 cytotoxicity assay; details: for CC50: Table 4; for tox 20 h TC50 / tox 72 h TC50 / tox 120 h TC50: Table 6
# WST-1 cytotoxicity assay = details: African green monkey, BS-C-1 cells
# [4] = target: vaccinia virus DNA synthesis (viral DNA polymerase and its associated factors) (Vaccinia virus, UniProt P06856); assay type: biochemical
# vaccinia virus = assay type: cell-based
# [5] = Orthopoxvirus vaccinia, 20 h, read-out: Cell Protection 20 h EC50
# [6] = read-out: Cytotoxicity 20 h CC50, 20 h
# [7] = Orthopoxvirus vaccinia, BSC-1, 20 h, read-out: cell prot EC50
# [8] = Orthopoxvirus vaccinia, 20 h, read-out: Plaque Reduction 20 h EC50
# [9] = Orthopoxvirus vaccinia, BSC-1, 20 h, read-out: plaque red EC50
# [10] = read-out: Cytotoxicity 72 h CC50, 72 h
# [11] = read-out: Cytotoxicity 120 h CC50, 120 h
# [12] = read-out: DNA Synthesis Inhibition IC50
# Throughout, for Blocking the replication of vaccinia virus in cells: test concentration or dose not given here.
Compound,EC50 (vaccinia virus WR [1]; [5]),Effect of dsDNA (vaccinia virus WR [2]),CC50 (BS-C-1 cells; [6]),Selectivity Index SI (vaccinia virus WR [1]),EC50 (vaccinia virus WR [1]; [7]),EC50 (vaccinia virus WR [3]; [8]),EC50 (vaccinia virus WR [3]; [9]),trapped by dsDNA (vaccinia virus WR [2]),tox 20 h TC50 (BS-C-1 cells; 20 h),tox 72 h TC50 (BS-C-1 cells; 72 h),tox 120 h TC50 (BS-C-1 cells; 120 h),CC50 (BS-C-1 cells; [11]),selectivity index (vaccinia virus WR [1]),"IC50 [4, 12]",IC50 ([4]; read-out: DNA synth IC50),also measured
"C[C@@]1(CO)[C@H](O)CC[C@@]2(C)[C@H]1CC[C@H]1C[C@@H]3C[C@@]12CC[C@]3(O)CO [Aphidicolin, reference compound]",18 µM,No,–,–,–,–,–,–,–,–,–,–,–,–,–,–
"Nc1ccn([C@@H]2O[C@H](CO)[C@@H](O)[C@@H]2O)c(=O)n1 [Ara-C, reference compound]",–,Yes,16 µM,–,–,–,–,–,–,–,–,–,–,–,–,EC50 (vaccinia virus WR [1]; read-out: Cell Protection 20 h EC50): 0.24 µM; EC50 (vaccinia virus WR [3]; read-out: Plaque Reduction 20 h EC50): 0.5 µM
"Nc1ccn(C[C@@H](CO)OCP(=O)(O)O)c(=O)n1 [Cidofovir, reference compound]",132 µM,No,–,>18.9,132 µM,50 µM,50 µM,no,>500 µM,>500 µM,300 µM,300 µM,–,–,–,CC50 (BS-C-1 cells; [10]): > 500 µM; CC50 at 20 h (WST-1 cytotoxicity assay): > 2500 µM
COC(=O)c1cccc2c1-c1ccccc1/C2=N\O [Compound 1],9.6 µM,No,127 µM,13.2,9.6 µM,10 µM,10 µM,no,127 µM,–,20 µM,20 µM,13.2,108 µM,108 µM,selectivity index over 72 h (vaccinia virus WR [1]): 3.2
CCOC(=O)c1c(NC(=O)/C=C/C(=O)O)sc(C)c1-c1ccccc1 [Compound 2],30 µM,No,159 µM,–,30 µM,25 µM,25 µM,no,159 µM,–,–,–,–,374 µM,374 µM,–
CCn1c2ccccc2c2ccc(/C=N/n3cnnc3)cc21 [Compound 3],50 µM,No,> 200 µM,>4.0,50 µM,50 µM,50 µM,no,>200 µM,36 µM,3 µM,3 µM,>4.0,131 µM,131 µM,CC50 (BS-C-1 cells; [10]): 36 µM
Cc1csc2c(N3CCN(C(=O)NC(C)(C)C)CC3)ncnc12 [Compound 4],50 µM,No,157 µM,3.1,50 µM,15 µM,15 µM,no,157 µM,–,40 µM,40 µM,3.1,12 µM,12 µM,–
CCNc1nc(SCc2ccc(Cl)cc2)nc2sc3c(c12)CCN(C)C3 [Compound 5],45 µM,No,115 µM,2.6,42 µM,15 µM,15 µM,no,155 µM,–,5 µM,5 µM,2.6,129 µM,129 µM,–
Cc1cc(/N=C/c2cc(Cl)cc(Cl)c2O)no1 [Compound 6],95 µM,No,> 200 µM,>2.1,95 µM,75 µM,75 µM,no,>200 µM,50 µM,20 µM,20 µM,>2.1,30 µM,30 µM,CC50 at 72 h (WST-1 cytotoxicity assay): ~50 µM
Cc1c(/N=C/c2cc(Br)cc(Br)c2Br)cccc1C(=O)O [Compound 7],100 µM,No,–,>2,100 µM,75 µM,75 µM,no,>200 µM,38 µM,20 µM,–,>2,26 µM,26 µM,CC50 at 20 h (WST-1 cytotoxicity assay): > 200 µM; CC50 at 72 h (WST-1 cytotoxicity assay): 38 µM; CC50 at 120 h (WST-1 cytotoxicity assay): 20 µM
Cc1ccc2c(Sc3ccc(Cl)cc3)c(C(=O)O)[nH]c2c1 [Compound 11],130 µM,No,> 200 µM,>1.5,130 µM,75 µM,75 µM,no,>200 µM,174 µM,120 µM,120 µM,>1.5,43 µM,43 µM,CC50 (BS-C-1 cells; [10]): 174 µM
N=C1/C(=C/c2coc3ccccc3c2=O)C(=O)N=C2SC=NN12 [Compound 14],188 µM,No,> 200 µM,>1,188 µM,150 µM,150 µM,no,>200 µM,>200 µM,50 µM,50 µM,>1,75 µM,75 µM,CC50 (BS-C-1 cells; [10]): > 200 µM
CC(=O)n1c2ccccc2c2nc(C)sc21 [Compound 15],236 µM,No,> 200 µM,>1,236 µM,100 µM,100 µM,no,>200 µM,>200 µM,75 µM,75 µM,>1,111 µM,111 µM,CC50 (BS-C-1 cells; [10]): > 200 µM
"CC[n+]1c(-c2ccccc2)c2cc(N)ccc2c2ccc(N)cc21 [Ethidium, reference compound]",100 µM,Yes,–,–,–,–,–,–,–,–,–,–,–,–,–,–
"CCN(CC)CCCC(C)Nc1c2ccc(Cl)cc2nc2ccc(OC)cc12 (centres unmarked) [Quinacrine, reference compound]",17 µM,Yes,–,–,–,–,–,–,–,–,–,–,–,–,–,–
"[H]/N=C1/SC(=Cc2ccco2)C(=O)N1c1nccs1 [XXXII, (E)-5-(furan-2-ylmethylene)-2-imino-3-(thiazol-2-yl)thiazolidin-4-one]",–,–,–,–,–,–,–,–,–,–,–,–,–,–,–,Blocking the replication of vaccinia virus in cells (vaccinia virus): effective in blocking the replication of vaccinia virus in cells
"COc1ccc(Nc2cc(C(F)(F)F)ccc2Cl)c(C(=O)O)c1 [XXXIV, 2-(2-chloro-5-(trifluoromethyl)phenylamino)-5-methoxybenzoic acid]",–,–,–,–,–,–,–,–,–,–,–,–,–,–,–,Blocking the replication of vaccinia virus in cells (vaccinia virus): effective in blocking the replication of vaccinia virus in cells
"O=C1CSC(=S)N1/N=C/c1ccc(Cl)c([N+](=O)[O-])c1 [XXXIX, (E)-3-(4-chloro-3-nitrobenzylideneamino)-2-thioxothiazolidin-4-one]",–,–,–,–,–,–,–,–,–,–,–,–,–,–,–,Blocking the replication of vaccinia virus in cells (vaccinia virus): effective in blocking the replication of vaccinia virus in cells
"CN1CCc2c(-c3cccs3)nc(OCc3ccccc3Br)c(C#N)c2C1 [XXXV, 3-(2-bromobenzyloxy)-6-methyl-1-(thiophen-2-yl)-5,6,7,8-tetrahydro-2,6-naphthyridine-4-carbonitrile]",–,–,–,–,–,–,–,–,–,–,–,–,–,–,–,Blocking the replication of vaccinia virus in cells (vaccinia virus): effective in blocking the replication of vaccinia virus in cells
